“Also recorded” adds a separate entry of the source. Structures can show the parent of a compound that is named as a salt.
Assays:
[1] = tested on: scopolamine-treated NMRI mice; assay: Morris water maze spatial reference memory task, reversal of scopolamine-induced cognitive deficits; type: in vivo; conditions: for Learning / Thigmotaxis / S-T memory: mg/kg i.p.; for S-T memory: probe 1.5 h
Protocol: (§1) Female, NMRI mice aged 3-4 months were from Harlan, UK.
Mice were group housed (7-9 per cage) and maintained with light from 7 am-7 pm and experiments carried out in the light phase. […] They were separated into 6 groups to receive drug administrations as follows:
(§2) The injection volume for drugs was 0.2 ml per 30 g animal weight and they were injected intraperitoneally. The doses were as indicated above.
The water maze consisted of a water-filled pool (1.5 m diameter; 20±2° C.) in which a platform submerged 1 cm below water surface was the only means of escape. Mice were released from 4 cardinal sites (South, West, North and East) facing the wall of the pool in random fashion and thus had to acquire spatial knowledge of the exact platform location by spatial mapping procedures using distal cues.
Each animal was given 6 trials/day and was allowed to swim for a maximum time of 60 seconds and stay 30 seconds on the platform. […] An inter-trial interval of 10-20 minutes was given. The animals were trained for 4 consecutive days and received probe trials (free swim for 60 seconds without platform in the pool) approximately 1.5 and 24 hours post-training to test short and long-term memory, respectively. The behaviour of animals was recorded via an overhead camera and data transmitted to the PC for online storage and analysis (EthoVision basic version 3.0.8. Noldus Information Technology, Netherlands).
Probe trial data were analysed by one-way ANOVA and the appropriate post-hoc tests (Bonferroni's multiple comparison test or Newman Keuls) were carried out to determine the source of a significant main effect or interaction. Analyses were performed two-tailed and the null hypothesis was […] at probability levels of 5% (p<0.05). Only terms for reliable differences are mentioned in the text for simplicity.

[2] = tested on: mice; type: in vivo; conditions: for highest effective and safe dose: i.p., mice
[3] = in vivo, ip
[4] = tested on: NMRI mice aged 2-3, 6 and 13 months; assay: Water maze learning and memory in young and aged NMRI mice; conditions: 2-3 month mice; 1.5 hours; MTC 1 mg/kg i.p.
[5] = tested on: saline treated NMRI mice; assay: Morris water maze spatial reference memory task, drug given after saline (otherwise unimpaired animals, side-effect profiling); type: in vivo; conditions: saline then Rivast (0.125), mg/kg i.p.
Protocol: as §1
Mice were group housed (7-9 per cage) and maintained with light from 7 am-7 pm and experiments carried out in the light phase. There were 82 mice in total, of which 12 were excluded from the study for circling behaviour during the water maze test. They were separated into 6 groups to receive drug administrations as follows:
as §2
Behavioural testing was undertaken using the Morris water maze spatial navigational task (Morris, 1984). […]
Each animal was given 6 trials/day and was allowed to swim for a maximum time of 60 seconds and stay 30 seconds on the platform. […] The behaviour of animals was recorded via an overhead camera and data transmitted to the PC for online storage and analysis (EthoVision basic version 3.0.8. Noldus Information Technology, Netherlands). […]
Behavioural data of acquisition learning were analysed by conventional statistics (Graph Pad Prism version 4.01) using factorial repeated measures analysis of variance (ANOVA) with treatment as between-subject and day/trial as within-subject factor followed by planned comparisons between selected groups. […]

[6] = Brain levels of MTC after administration; conditions: post administration
[7] = scopolamine 0.5 mg/kg then rivastigmine 0.5 mg/kg, probe trials
[8] = scopolamine (0.5) then Rivast (0.1)
[9] = scopolamine (0.5) then Rivast (0.125)
[10] = scopolamine (0.5) then Rivast (0.125), listed as Rivast
[11] = scopolamine (0.5) then Rivast (0.25)
[12] = scopolamine (0.5) then Rivast (0.25), listed as Rivast
[13] = scopolamine (0.5) then Rivast (0.5)
[14] = scopolamine (0.5) then Rivast (0.5), listed as Rivast

CN(C)c1ccc2nc3ccc(N(C)C)cc3[s+]c2c1 [MTC, methyl-thioninium chloride]
saturation of dose-response relationship for learning and memory formation ([1]; linear dose-response): about 4 mg/kg
highest effective and safe dose [2]: 4 mg/kg
time of peak brain levels [3]: 30 to 60 min
time spent in the target quadrant [4]: no effect

CCN(C)C(=O)Oc1cccc([C@H](C)N(C)C)c1 [rivastigmine, rivastigmine tartrate]
dose required to fully restore spatial learning ([1]; administered acutely, scopolamine-treated NMRI mice): > 0.125 mg/kg
overall learning between day 1 and 4 (overall reduction in path length) ([1]; scopolamine 0.5 mg/kg then rivastigmine 0.1 mg/kg): substantial overall improvement
thigmotaxis during memory phase ([1]; scopolamine 0.5 mg/kg then rivastigmine 0.5 mg/kg): not significantly different from either scopolamine or saline
logarithmic transform of pathlength (advanced analysis) ([1]; scopolamine 0.5 mg/kg then rivastigmine 0.5 mg/kg i.p., by day 4): reverse the deficit
proportion of time spent in target quadrant (probe trials) ([1]; scopolamine 0.5 mg/kg then rivastigmine 0.5 mg/kg, pooled day 4 and day 5): did not reverse
latency (composite parameter, temporal accuracy) [1, 7]: no effect at all
localisation (composite parameter, spatial accuracy) [1, 7]: not able to reverse the deficit
Learning [1, 8]: ineffective
Thigmotaxis [1, 8]: ↓
Learning ([1]; scopolamine (0.5) then Rivast (0.1), listed as Rivast): ↓
S-T memory [1, 8]: ↓
Thigmotaxis [1, 9]: ↑
Learning [1, 10]: ↑
Learning ([1]; scopolamine (0.5) then Rivast (0.125), listed as Rivastigmine): fully reversed
S-T memory [1, 9]: spatial bias was established
S-T memory [1, 10]: ↑
Learning [1, 11]: only partial
Thigmotaxis [1, 11]: ↓
Learning [1, 12]: ↑↓
S-T memory [1, 11]: memory deficit
S-T memory [1, 12]: ↓
Thigmotaxis [1, 13]: reversed
Learning [1, 14]: ↑
Thigmotaxis [1, 14]: ↑
Learning ([1]; scopolamine (0.5) then Rivast (0.5), listed as Rivastigmine): completely reversed; also recorded: fully reversed
S-T memory [1, 13]: memory deficit
S-T memory [1, 14]: ↓
Learning [5]: did not alter spatial learning
S-T memory ([5]; probe 1.5 h): ↑↓
adverse effects (motor coordination problems, ataxia, brief episodes of convulsions) ([2]; doses of 0.5 and 0.25 mg/kg, in the absence of scopolamine treatment): severe adverse effects
highest effective and safe dose [2]: 0.125 mg/kg

methyl-thioninium chloride [MTC]
time at which brain levels are maximal [6]: 1 to 4 h

— patent publication US9211294B2, “Phenothiazine compounds for treating mild cognitive impairment” (WisTa Laboratories Ltd., priority 2007, dated 2015)
